Reference: patent US20080242663A1, “NOVEL PYRIMIDINE DERIVATIVES 698” (ASTRAZENECA AB, priority 2007, published 2008)

How the values were obtained:
[1] = target: T1, recombinant EphB4 (Homo sapiens, UniProt P54760); test: In vitro EphB4 enzyme assay (Alphascreen); type: biochemical
T1 construct: amino acids 563-987; Swiss-Prot Acc; No. P54760; purchased ProQinase GmbH 0178-0000-3
T1 sequence (P54760 563-987): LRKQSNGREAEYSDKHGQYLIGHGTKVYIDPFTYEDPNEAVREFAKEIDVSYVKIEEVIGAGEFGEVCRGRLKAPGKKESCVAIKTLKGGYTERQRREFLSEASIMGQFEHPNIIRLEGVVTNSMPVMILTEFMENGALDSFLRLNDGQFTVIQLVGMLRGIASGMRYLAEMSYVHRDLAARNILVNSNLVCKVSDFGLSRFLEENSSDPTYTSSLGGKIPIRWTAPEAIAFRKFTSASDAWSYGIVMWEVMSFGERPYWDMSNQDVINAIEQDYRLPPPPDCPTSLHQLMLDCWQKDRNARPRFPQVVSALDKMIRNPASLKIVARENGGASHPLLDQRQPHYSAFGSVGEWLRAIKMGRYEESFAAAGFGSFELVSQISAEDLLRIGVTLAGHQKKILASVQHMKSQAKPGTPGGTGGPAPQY
Procedure, shortened: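 Recombinant EphB4 phosphorylated biotin-poly-GAT with Mg-ATP for 1 hr at room temperature; EDTA stop, then Alphascreen donor/acceptor (anti-phosphotyrosine) beads for 20 hrs in the dark. After minimum subtraction, signal plotted against compound concentration to derive IC50.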

[2] = target: T2, human EphB4 (Homo sapiens, UniProt P54760); test: In vitro EphB4 cell assay (EphB4 phosphorylation in EphB4-CHO cells, sandwich ELISA); type: cell-based; settings: Assay B
T2 construct: to generate full-length EphB4 containing a Myc-His tag at the C-terminus; expressed in transfected cells; EphB4-CHO)
T2 sequence (P54760 16-987): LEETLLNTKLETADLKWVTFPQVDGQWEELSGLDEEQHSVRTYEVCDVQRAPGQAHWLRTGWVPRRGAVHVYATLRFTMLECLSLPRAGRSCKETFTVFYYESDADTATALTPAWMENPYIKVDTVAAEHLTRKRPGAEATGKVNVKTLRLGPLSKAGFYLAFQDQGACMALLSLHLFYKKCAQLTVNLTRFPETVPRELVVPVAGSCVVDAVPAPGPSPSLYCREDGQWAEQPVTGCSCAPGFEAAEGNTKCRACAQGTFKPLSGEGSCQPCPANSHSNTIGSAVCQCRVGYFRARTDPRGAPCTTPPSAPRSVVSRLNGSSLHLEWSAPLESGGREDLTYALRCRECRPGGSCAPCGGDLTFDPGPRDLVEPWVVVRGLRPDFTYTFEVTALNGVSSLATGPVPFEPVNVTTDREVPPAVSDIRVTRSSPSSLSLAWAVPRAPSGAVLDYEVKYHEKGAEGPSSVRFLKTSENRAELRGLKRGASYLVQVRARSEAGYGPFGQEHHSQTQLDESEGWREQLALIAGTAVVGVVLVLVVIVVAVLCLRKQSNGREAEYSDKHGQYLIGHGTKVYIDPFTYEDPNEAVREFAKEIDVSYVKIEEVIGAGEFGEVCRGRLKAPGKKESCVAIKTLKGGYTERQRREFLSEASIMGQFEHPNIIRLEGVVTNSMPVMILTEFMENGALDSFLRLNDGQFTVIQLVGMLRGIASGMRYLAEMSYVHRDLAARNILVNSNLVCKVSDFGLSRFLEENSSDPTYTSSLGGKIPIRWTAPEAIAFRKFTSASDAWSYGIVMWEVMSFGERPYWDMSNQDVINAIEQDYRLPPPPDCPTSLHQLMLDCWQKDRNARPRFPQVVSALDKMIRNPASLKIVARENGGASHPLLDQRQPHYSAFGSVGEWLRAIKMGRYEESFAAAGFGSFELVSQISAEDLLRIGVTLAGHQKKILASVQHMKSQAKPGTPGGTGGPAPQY
Procedure: The assay identifies inhibitors of cellular EphB4 by measuring a decrease in phosphorylation of EphB4 following treatment of cells with compound. The endpoint assay used a sandwich ELISA to detect EphB4 phosphorylation status. Briefly, Myc-tagged EphB4 from treated cell lysate was captured on the ELISA plate via an anti-c-Myc antibody. The phosphorylation status of captured EphB4 was then measured using a generic phosphotyrosine antibody conjugated to HRP via a colourimetric output catalysed by HRP, with level of EphB4 phosphorylation directly proportional to the colour intensity. Absorbance was measured spectrophotometrically at 450 nm.
Full length human EphB4 (Swiss-Prot Acc. No. P54760) was cloned using standard techniques from cDNA prepared from HUVEC using RT-PCR. The cDNA fragment was then sub-cloned into a pcDNA3.1 expression vector containing a Myc-His epitope tag to generate full-length EphB4 containing a Myc-His tag at the C-terminus (Invitrogen Ltd. Paisley, UK). […] CHO-K1 cells were engineered to stably express the EphB4-Myc-His construct using standard stable transfection techniques, to generate cells hereafter termed EphB4-CHO.
On day 2, the cells were incubated overnight in 90 μl/well of media containing 0.1% Hyclone stripped-serum (Fisher Scientific UK, Catalogue No. SH30068.02). […] A 10 μl aliquot of each compound dilution was transferred to the cell plates in duplicate wells, and the cells incubated for 1 hr at 37° C.
Following compound treatment, cells were stimulated with clustered ephrin-B2 at a final concentration of 1 μg/ml for 20 minutes at 37° C. to induce EphB4 phosphorylation. Following stimulation, the medium was removed and the cells lysed in 100 μl/well of lysis buffer (25 mM Tris HCl, 3 mM EDTA, 3 mM EGTA, 50 mM NaF, 2 mM orthovanadate, 0.27M Sucrose, 10 mM β-glycerophosphate, 5 mM sodium pyrophosphate, 2% Triton X-100, pH 7.4).
Plates were washed twice with PBS/0.05% Tween-20 and incubated with 100 μl/well cell lysate overnight at 4° C. […] ELISA plates were washed four times with PBS/0.05% Tween-20 and developed with 100 μl/well TMB substrate (Sigma-Aldrich Company Ltd, Catalogue No. T0440). The reaction was stopped after 15 minutes with the addition of 25 μl/well 2M sulphuric acid. The absorbances were determined at 450 nm using the Tecan SpectraFluor Plus. The minimum value was subtracted from all values, and the signal plotted against compound concentration to generate IC50 data.

[3] = system: Human Colorectal cancer cells (HT29); test: In vivo tumour explant model; set-up: species or system nude male mice (nu/nu:Alpk); settings: HT29 tumours in nude mice, 100 mg/kg b.i.d. orally, 16 consecutive days
Procedure: Human Colorectal cancer cells (HT29 5×10^6 (ATCC HTB-38)) were implanted subcutaneously on to the left flank of nude male mice (nu/nu:Alpk). Actively growing tumours approx 0.2-0.3 cm^3 were selected and randomised. […] Tumours were measured twice weekly and volumes (cm^3) calculated (π/6×(length×width×width)/1000). On the final day of the dosing the tumours were measured, percent growth inhibition was then calculated compared to the control ((([…]-1))*100), where GMDV is the geometric delta volume of either treated (T) or control (C), and a T-Test was performed to establish significance.

IC50 [1] | IC50 [2] | Structure (SMILES) | tumour volume [3]
2180 nM | 74 nM | CN(c1ccnc(Nc2cc(F)cc(N3CCOCC3)c2)n1)c1ccc(F)c(Cl)c1F [Example 2.2, N′-(3-chloro-2,4-difluoro-phenyl)-N-(3-fluoro-5-morpholin-4-yl-phenyl)-N′-methyl-pyrimidine-2,4-diamine] | –
1270 nM | 11 nM | CN(c1ccnc(Nc2cc(N3CCCOCC3)cc(N3CCOCC3)c2)n1)c1ccc(F)c(Cl)c1F [Example 2.10, N′-(3-chloro-2,4-difluoro-phenyl)-N′-methyl-N-[3-morpholin-4-yl-5-(1,4-oxazepan-4-yl)phenyl]pyrimidine-2,4-diamine] | –
1110 nM | 17 nM | CC(C)OCc1cc(Nc2nccc(N(C)c3ccc(F)c(Cl)c3F)n2)cc(N2CCOCC2)c1 [Example 2.15, N′-(3-chloro-2,4-difluoro-phenyl)-N′-methyl-N-[3-morpholin-4-yl-5-(propan-2-yloxymethyl)phenyl] pyrimidine-2,4-diamine] | –
28.9 nM | 21 nM | CN(c1ccnc(Nc2cc(CN3CCCC3)cc(N3CCOCC3)c2)n1)c1ccc(F)c(Cl)c1F [Example 2.17, N′-(3-chloro-2,4-difluoro-phenyl)-N′-methyl-N-[3-morpholin-4-yl-5-(pyrrolidin-1-ylmethyl)phenyl]py-rimidine-2,4-diamine] | –
63.8 nM | 1710 nM | CN1CCN(c2cccc(Nc3nccc(N(C)c4ccc(F)c(Cl)c4F)n3)c2)CC1 [Example 4, N′-(3-chloro-2,4-difluoro-phenyl)-N′-methyl-N-[3-(4-methylpiperazin-1-yl)phenyl]pyrimidine-2,4-diamine] | –
– | – | Cc1ccc(CO)cc1N(C)c1ccnc(Nc2cc(N3CCOCC3)cc(N3CCOCC3)c2)n1 [[3-[[2-[(3,5-dimorpholin-4-ylphenyl)amino]pyrimidin-4-yl]-methyl-amino]-4-methyl-phenyl]methanol] | reducing tumour volume
